# From PubChem BioAssay AID2060501 (Molecular Pharmacology Branch, DTP, NCI, 2025)
# pIC50: −log10 of the molar value.
# Test system: 282377-053-R-J1-PDC complex spheroids, viability
# Assay: Anticancer human tumor 282377-053-R-J1-PDC patient-derived colon adenocarcinoma cell line growth inhibition [GQUAD]
# Conditions: for pIC50: curve of first compound; for viability, T/C: stronger effect = lower value
# In short: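 Tumor cells were grown as complex spheroids with HUVEC endothelial cells and mesenchymal stem cells as stroma. G-quadruplex stabilizers were combined with targeted agents over half-log dilutions from near the clinical Cmax, or from 10 microM.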
# [1] = second compound 0.0316 µM, first compound 0.0316 µM
# [2] = second compound 0.0316 µM, first compound 0.1 µM
# [3] = second compound 0.0316 µM, first compound 0.316 µM
# [4] = second compound 0.0316 µM, first compound 1 µM
# [5] = second compound 0.0316 µM, first compound 3.16 µM
# [6] = second compound 0.0316 µM, first compound 10 µM
# [7] = second compound 0.1 µM, first compound 0.0316 µM
# [8] = second compound 0.1 µM, first compound 0.1 µM
# [9] = second compound 0.1 µM, first compound 0.316 µM
# [10] = second compound 0.1 µM, first compound 1 µM
# [11] = second compound 0.1 µM, first compound 3.16 µM
# [12] = second compound 0.1 µM, first compound 10 µM
# [13] = second compound 0.316 µM, first compound 0.0316 µM
# [14] = second compound 0.316 µM, first compound 0.1 µM
# [15] = second compound 0.316 µM, first compound 0.316 µM
# [16] = second compound 0.316 µM, first compound 1 µM
# [17] = second compound 0.316 µM, first compound 3.16 µM
# [18] = second compound 0.316 µM, first compound 10 µM
# [19] = second compound 1 µM, first compound 0.0316 µM
# [20] = second compound 1 µM, first compound 0.1 µM
# [21] = second compound 1 µM, first compound 0.316 µM
# [22] = second compound 1 µM, first compound 1 µM
# [23] = second compound 1 µM, first compound 3.16 µM
# [24] = second compound 1 µM, first compound 10 µM
# [25] = second compound 3.16 µM, first compound 0.0316 µM
# [26] = second compound 3.16 µM, first compound 0.1 µM
# [27] = second compound 3.16 µM, first compound 0.316 µM
# [28] = second compound 3.16 µM, first compound 1 µM
# [29] = second compound 3.16 µM, first compound 3.16 µM
# [30] = second compound 3.16 µM, first compound 10 µM
# [31] = second compound 10 µM, first compound 0.0316 µM
# [32] = second compound 10 µM, first compound 0.1 µM
# [33] = second compound 10 µM, first compound 0.316 µM
# [34] = second compound 10 µM, first compound 1 µM
# [35] = second compound 10 µM, first compound 3.16 µM
# [36] = second compound 10 µM, first compound 10 µM
# 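Also: spheroids exposed to compounds for 7 days before readout.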
# 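For viability, T/C in this document: percent of vehicle DMSO control viability with 100% = untreated-like growth.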
compound,measurement,setting,value
C#Cc1c(F)ccc2cc(O)cc(-c3ncc4c(N5CC6CCC(C5)N6)nc(OCC56CCCN5CC(F)C6)nc4c3F)c12 (stereo unspecified) + CN(C)c1ccc(Nc2c3ccc(NC(=O)CCN4CCCC4)cc3nc3cc(NC(=O)CCN4CCCC4)ccc23)cc1,pIC50,second compound 0.0316 µM,< 5.00
same,pIC50,second compound 0.1 µM,< 5.00
same,pIC50,second compound 0.316 µM,< 5.00
same,pIC50,second compound 1 µM,< 5.00
same,pIC50,second compound 3.16 µM,< 5.00
same,pIC50,second compound 10 µM,< 5.00
same,"viability, T/C",[1],98%
same,"viability, T/C",[2],108%
same,"viability, T/C",[3],89.1%
same,"viability, T/C",[4],98.2%
same,"viability, T/C",[5],84.2%
same,"viability, T/C",[6],82.4%
same,"viability, T/C",[7],103%
same,"viability, T/C",[8],97.1%
same,"viability, T/C",[9],79.2%
same,"viability, T/C",[10],74.5%
same,"viability, T/C",[11],88.7%
same,"viability, T/C",[12],67.6%
same,"viability, T/C",[13],93.7%
same,"viability, T/C",[14],87.7%
same,"viability, T/C",[15],87.4%
same,"viability, T/C",[16],79.9%
same,"viability, T/C",[17],73.1%
same,"viability, T/C",[18],74%
same,"viability, T/C",[19],87.5%
same,"viability, T/C",[20],78.1%
same,"viability, T/C",[21],70.7%
same,"viability, T/C",[22],89.9%
same,"viability, T/C",[23],91.2%
same,"viability, T/C",[24],78.4%
same,"viability, T/C",[25],78.9%
same,"viability, T/C",[26],75.2%
same,"viability, T/C",[27],86.6%
same,"viability, T/C",[28],77.3%
same,"viability, T/C",[29],91.7%
same,"viability, T/C",[30],88.7%
same,"viability, T/C",[31],83.1%
same,"viability, T/C",[32],81.8%
same,"viability, T/C",[33],91.8%
same,"viability, T/C",[34],73.5%
same,"viability, T/C",[35],90.8%
same,"viability, T/C",[36],87.6%
CC(=O)O[C@H]1C(=O)[C@@]2(C)[C@H]([C@H](OC(=O)c3ccccc3)[C@]3(O)C[C@H](OC(=O)[C@H](O)[C@@H](NC(=O)c4ccccc4)c4ccccc4)C(C)=C1C3(C)C)[C@]1(OC(C)=O)CO[C@@H]1C[C@@H]2O + CN(C)c1ccc(Nc2c3ccc(NC(=O)CCN4CCCC4)cc3nc3cc(NC(=O)CCN4CCCC4)ccc23)cc1,pIC50,second compound 0.0316 µM,7.38
same,pIC50,second compound 0.1 µM,7.35
same,pIC50,second compound 0.316 µM,7.31
same,pIC50,second compound 1 µM,7.46
same,pIC50,second compound 3.16 µM,7.41
same,pIC50,second compound 10 µM,> 7.50
same,"viability, T/C",[1],59.7%
same,"viability, T/C",[2],14.9%
same,"viability, T/C",[3],18.9%
same,"viability, T/C",[4],18.1%
same,"viability, T/C",[5],22%
same,"viability, T/C",[6],25.2%
same,"viability, T/C",[7],63.1%
same,"viability, T/C",[8],15.6%
same,"viability, T/C",[9],17.4%
same,"viability, T/C",[10],17.6%
same,"viability, T/C",[11],21.3%
same,"viability, T/C",[12],25.8%
same,"viability, T/C",[13],68%
same,"viability, T/C",[14],17.1%
same,"viability, T/C",[15],18.5%
same,"viability, T/C",[16],18.1%
same,"viability, T/C",[17],19.1%
same,"viability, T/C",[18],28.9%
same,"viability, T/C",[19],52.5%
same,"viability, T/C",[20],15.7%
same,"viability, T/C",[21],18.1%
same,"viability, T/C",[22],17.4%
same,"viability, T/C",[23],26.8%
same,"viability, T/C",[24],25%
same,"viability, T/C",[25],56.7%
same,"viability, T/C",[26],18.4%
same,"viability, T/C",[27],16.8%
same,"viability, T/C",[28],17.2%
same,"viability, T/C",[29],19.2%
same,"viability, T/C",[30],24.7%
same,"viability, T/C",[31],47.2%
same,"viability, T/C",[32],14.8%
same,"viability, T/C",[33],14.5%
same,"viability, T/C",[34],18.8%
same,"viability, T/C",[35],22.8%
same,"viability, T/C",[36],28.4%
CCCS(=O)(=O)Nc1ccc(F)c(C(=O)c2c[nH]c3ncc(-c4ccc(Cl)cc4)cc23)c1F + CN(C)c1ccc(Nc2c3ccc(NC(=O)CCN4CCCC4)cc3nc3cc(NC(=O)CCN4CCCC4)ccc23)cc1,pIC50,second compound 0.0316 µM,5.35
same,pIC50,second compound 0.1 µM,5.46
same,pIC50,second compound 0.316 µM,5.53
same,pIC50,second compound 1 µM,5.41
same,pIC50,second compound 3.16 µM,5.48
same,pIC50,second compound 10 µM,5.43
same,"viability, T/C",[1],81%
same,"viability, T/C",[2],66%
same,"viability, T/C",[3],58%
same,"viability, T/C",[4],69.9%
same,"viability, T/C",[5],64.5%
same,"viability, T/C",[6],16.9%
same,"viability, T/C",[7],68.1%
same,"viability, T/C",[8],56%
same,"viability, T/C",[9],59.3%
same,"viability, T/C",[10],61.4%
same,"viability, T/C",[11],52.8%
same,"viability, T/C",[12],19.4%
same,"viability, T/C",[13],74.8%
same,"viability, T/C",[14],65.7%
same,"viability, T/C",[15],74.7%
same,"viability, T/C",[16],49.3%
same,"viability, T/C",[17],57.2%
same,"viability, T/C",[18],15.6%
same,"viability, T/C",[19],79.8%
same,"viability, T/C",[20],60.9%
same,"viability, T/C",[21],89.3%
same,"viability, T/C",[22],57.6%
same,"viability, T/C",[23],59.2%
same,"viability, T/C",[24],23.6%
same,"viability, T/C",[25],73.3%
same,"viability, T/C",[26],72.5%
same,"viability, T/C",[27],68.7%
same,"viability, T/C",[28],67.1%
same,"viability, T/C",[29],50.6%
same,"viability, T/C",[30],21.6%
same,"viability, T/C",[31],82.1%
same,"viability, T/C",[32],70.6%
same,"viability, T/C",[33],75.6%
same,"viability, T/C",[34],52.3%
same,"viability, T/C",[35],65%
same,"viability, T/C",[36],14.2%
